Earlier results as cited in patent US6238865A, “Simple and efficient method to label and modify 3'-termini of RNA using DNA polymerase and a synthetic template with defined overhang nucleotides” (Chen; Guangtian, priority 1998, dated 2001).

Target: poly(A) polymerase (Saccharomyces cerevisiae, UniProt P29468)
Conditions: cited from Lingner et al., J. Biol. Chem. 266:8741-8746, 1991, read-out: Km for ATP

poly(A) polymerase, sequence (P29468 whole entry): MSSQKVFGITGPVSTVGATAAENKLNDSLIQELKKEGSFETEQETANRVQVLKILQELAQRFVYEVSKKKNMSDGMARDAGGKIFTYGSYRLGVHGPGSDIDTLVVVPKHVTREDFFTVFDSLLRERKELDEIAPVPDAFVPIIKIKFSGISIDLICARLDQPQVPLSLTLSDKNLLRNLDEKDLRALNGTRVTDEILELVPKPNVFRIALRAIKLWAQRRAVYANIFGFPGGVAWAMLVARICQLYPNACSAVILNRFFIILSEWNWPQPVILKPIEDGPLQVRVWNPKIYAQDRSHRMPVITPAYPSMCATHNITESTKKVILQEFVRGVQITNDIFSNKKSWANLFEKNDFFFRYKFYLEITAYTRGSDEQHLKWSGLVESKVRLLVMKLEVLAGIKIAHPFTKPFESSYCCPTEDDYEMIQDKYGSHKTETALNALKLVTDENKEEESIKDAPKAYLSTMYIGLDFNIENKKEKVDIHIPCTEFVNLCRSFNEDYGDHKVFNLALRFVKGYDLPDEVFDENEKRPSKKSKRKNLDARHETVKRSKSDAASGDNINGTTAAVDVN

Question: With `Nc1ncnc2c1ncn2[C@@H]1O[C@H](COP(=O)(O)OP(=O)(O)OP(=O)(O)O)[C@@H](O)[C@H]1O` [ATP] as the compound, how does the Km read?
Answer: The Km was 50 µM.
